Measurements: US9486506B2 (Novo Nordisk A/S, priority 2011, dated 2016)
Numbered stars: 1 amine (or outer) side, 2 acyl side, 3 side chain; on linkers, the order of the positions; unused ones are H or OH. Side chains are listed from the residue outwards. Peptide text beside a SMILES is read from it. * marks the point of attachment. C18 diacid = O=C(O)CCCCCCCCCCCCCCCCC(=O)*; C16 diacid = O=C(O)CCCCCCCCCCCCCCC(=O)*; γGlu = O=C(O)[C@H](CCC(=O)[*:2])N[*:1]; C14 diacid = O=C(O)CCCCCCCCCCCCC(=O)*; AEEA = NCCOCCOCC(=O)O

What was measured:
glucagon receptor = target: T1, glucagon receptor (Homo sapiens, UniProt P47871); assay: Assay (I) Glucagon activity (cAMP biosensor, FLIPR); assay type: cell-based
T1 construct: expressed in transfected cells
T1 sequence (P47871 26-477): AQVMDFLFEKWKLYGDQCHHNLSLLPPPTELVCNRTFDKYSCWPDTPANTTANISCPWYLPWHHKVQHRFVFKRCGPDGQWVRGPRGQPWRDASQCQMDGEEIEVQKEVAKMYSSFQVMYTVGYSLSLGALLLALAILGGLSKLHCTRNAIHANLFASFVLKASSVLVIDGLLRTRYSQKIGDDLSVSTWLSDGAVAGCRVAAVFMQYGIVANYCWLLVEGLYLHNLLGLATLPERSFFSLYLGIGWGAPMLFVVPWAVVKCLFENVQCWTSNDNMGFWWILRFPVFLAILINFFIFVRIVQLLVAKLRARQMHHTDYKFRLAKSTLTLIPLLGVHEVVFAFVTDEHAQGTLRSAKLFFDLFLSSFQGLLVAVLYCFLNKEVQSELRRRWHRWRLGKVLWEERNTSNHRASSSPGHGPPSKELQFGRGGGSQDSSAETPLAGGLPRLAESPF

[1] = Assay (XI) Pharmacokinetic study in minipigs; assay type: in vivo, Göttingen minipigs; conditions: both sexes, Göttingen, minipig, plasma, iv, i.v. administration, terminal half-life, read-out: iv PK minipig [T½] (converted)
Experimental: Buffer: • 50 mM Dinatriumphosphatdihydrat • 184 mM Propylenglycol • 58 mM Phenol • pH adjusted to 8.15 with H3PO4. In cases where pH was adjusted to 8.15 after re-suspension of analogues, 0.2 M NaOH was used. Assay (XI) Pharmacokinetic Study in Minipigs
This is done in a pharmacokinetic (PK) study, whereamong other parameters the terminal half-life and the clearance of the derivative in question is determined. Increasing the terminal half-life and decreasing the clearance means that the compound of study is eliminated slower from the body.
Male or female Göttingen minipigs were obtained from Ellegaard Göttingen Minipigs (Dalmose, Denmark) approximately 7-14 months of age and weighing from approximately 16-35 kg were used in the studies. The minipigs were housed either individually (pigs with permanent catheters) or in a group and fed restrictedly once or twice daily with SDS minipig diet (Special Diets Services, Essex, UK). In some studies two permanent central venous catheters were implanted in vena cava caudalis or cranialis in each animal after at least 2 weeks of acclimatisation. […] On each dosing occasion these pigs were instrumented with a venflon in one ear vein through which the derivatives were dosed. Blood sampling was done by venipuncture in v. jugularis or v. cava cranialis
The animals were either unfasted or fasted for approximately 18 h before dosing and from 0 to 4 h after dosing, but had ad libitum access to water during the whole period.
Intravenous injections (the volume corresponding to usually 2-3 nmol/kg, for example 0.1 ml/kg) of the compounds were given through one catheter or through the venflon, and blood was sampled at predefined time points for up till 13 days post dosing (preferably through the other catheter or by venipuncture). Blood samples (for example 0.8 ml) were collected in tubes with EDTA buffer (8 mM) (sometimes aprotinin 500 KIU/ml blood was added) and then centrifuged at 4° C. and 1942 G for 10 minutes. […] Based on these measurements, time-plasma concentration profiles for the compound of study are plotted and a so-called non-compartmental pharmacokinetic analysis of the data is performed in WinNonlin v. 5.0 or Phoenix v. 6.2 (Pharsight Inc., Mountain View, Calif., USA) or other relevant software for PK analysis. For most compounds, the terminal part of the plasma-concentration profiles will be linear when drawn in a semi-logarithmic plot, reflecting that after the initial distribution, drug is removed from the body at a constant fractional rate. The rate (lambda Z or is equal to minus the slope of the terminal part of the plot. From this rate, also the terminal half-life may be calculated, as t½=ln(2)/λz (see, e.g., Johan Gabrielsson and Daniel Weiner: Pharmacokinetics and Pharmacodynamic Data Analysis. Concepts & Applications, 3rd Ed., Swedish Pharmaceutical Press, Stockholm (2000)).
Clearance is defined as the dose (D) divided by area under the curve (AUC) on the plasmaconcentration versus time profile (Rowland, M and Tozer T N: Clinical Pharmacokinetics: Concepts and Applications, 3rd edition, 1995 Williams Wilkins)

[2] = Assay (X) Chemical stability assessment by RP-UPLC; assay type: physicochemical; conditions: pH 8.15, 14 days at 37° C. vs 5° C., 333 μM

Row | Compound | EC50 (glucagon receptor) | half-life [1] | Chemical stability [Purity loss/14 days 37 C.] [2]
1 | CC(C)C[C@H](NC(=O)[C@H](Cc1ccc(O)cc1)NC(=O)[C@H](CCCNC(=N)N)NC(=O)[C@H](CO)NC(=O)[C@H](Cc1ccc(O)cc1)NC(=O)[C@H](CC(=O)O)NC(=O)[C@H](CO)NC(=O)[C@@H](NC(=O)[C@H](Cc1ccccc1)NC(=O)[C@@H](NC(=O)CNC(=O)[C@H](CCC(N)=O)NC(=O)[C@H](CO)NC(=O)[C@@H](N)Cc1c[nH]cn1)[C@@H](C)O)[C@@H](C)O)C(=O)N[C@@H](CC(=O)O)C(=O)N[C@@H](C)C(=O)N[C@@H](CCCNC(=N)N)C(=O)N[C@@H](CCCNC(=N)N)C(=O)N[C@@H](C)C(=O)N[C@@H](CCC(N)=O)C(=O)N[C@@H](CC(=O)O)C(=O)N[C@@H](Cc1ccccc1)C(=O)N[C@H](C(=O)N[C@@H](CCCCNC(=O)CC[C@H](NC(=O)CC[C@H](NC(=O)COCCOCCNC(=O)COCCOCCNC(=O)CC[C@H](NC(=O)CCCCCCCCCCCCCCCCC(=O)O)C(=O)O)C(=O)O)C(=O)O)C(=O)N[C@@H](Cc1c[nH]c2ccccc12)C(=O)N[C@@H](CC(C)C)C(=O)N[C@@H](CC(C)C)C(=O)N[C@@H](CO)C(=O)N[C@H](C(=O)O)[C@@H](C)O)C(C)C [Example 16, N^ε24-[(4S)-4-carboxy-4-[[(4S)-4-carboxy-4-[[2-[2-[2-[[2-[2-[2-[[(4S)-4-carboxy-4-(17-carboxyheptadecanoylamino)butanoyl]amino]ethoxy]ethoxy]acetyl]amino]ethoxy]ethoxy]acetyl]amino]butanoyl]amino]butanoyl]-[Arg^12,Ala^16,Lys^24,Leu^27,Ser^28]-Glucagon] (H-HSQGTFTSDYSRYLDARRAQDFVK([γGlu-γGlu-AEEA-AEEA-γGlu-C18 diacid])WLLST-OH) | 0.158 nM | 86.6 h | 
2 | CC(C)C[C@H](NC(=O)[C@H](CC(=O)O)NC(=O)[C@H](CC(C)C)NC(=O)[C@H](Cc1ccc(O)cc1)NC(=O)[C@H](CCCNC(=N)N)NC(=O)[C@H](CO)NC(=O)[C@H](Cc1ccc(O)cc1)NC(=O)[C@H](CC(=O)O)NC(=O)[C@H](CO)NC(=O)[C@@H](NC(=O)[C@H](Cc1ccccc1)NC(=O)[C@@H](NC(=O)CNC(=O)[C@H](CCC(N)=O)NC(=O)[C@H](CO)NC(=O)[C@@H](N)Cc1c[nH]cn1)[C@@H](C)O)[C@@H](C)O)C(=O)N[C@@H](CCCNC(=N)N)C(=O)N[C@@H](CCCNC(=N)N)C(=O)N[C@@H](C)C(=O)N[C@@H](CCC(N)=O)C(=O)N[C@@H](CC(=O)O)C(=O)N[C@@H](Cc1ccccc1)C(=O)N[C@H](C(=O)N[C@@H](CCCCNC(=O)CC[C@H](NC(=O)CC[C@H](NC(=O)COCCOCCNC(=O)COCCOCCNC(=O)CC[C@H](NC(=O)CCCCCCCCCCCCC(=O)O)C(=O)O)C(=O)O)C(=O)O)C(=O)N[C@@H](Cc1c[nH]c2ccccc12)C(=O)N[C@@H](CC(C)C)C(=O)N[C@@H](CC(C)C)C(=O)N[C@@H](CO)C(=O)N[C@H](C(=O)O)[C@@H](C)O)C(C)C [Example 24, N^ε24-[(4S)-4-carboxy-4-[[(4S)-4-carboxy-4-[[2-[2-[2-[[2-[2-[2-[[(4S)-4-carboxy-4-(13-carboxytridecanoylamino)butanoyl]amino]ethoxy]ethoxy]acetyl]amino]ethoxy]ethoxy]acetyl]amino]butanoyl]amino]butanoyl]-[Arg^12,Leu^16,Lys^24,Leu^27,Ser^28]-Glucagon] (H-HSQGTFTSDYSRYLDLRRAQDFVK([γGlu-γGlu-AEEA-AEEA-γGlu-C14 diacid])WLLST-OH) | 0.006 nM | 4.1 h | 
3 | CC(C)C[C@H](NC(=O)[C@H](Cc1c[nH]c2ccccc12)NC(=O)[C@H](CCCCNC(=O)CC[C@H](NC(=O)CC[C@H](NC(=O)COCCOCCNC(=O)COCCOCCNC(=O)CC[C@H](NC(=O)CCCCCCCCCCCCCCC(=O)O)C(=O)O)C(=O)O)C(=O)O)NC(=O)[C@@H](NC(=O)[C@H](Cc1ccccc1)NC(=O)[C@H](CC(=O)O)NC(=O)[C@H](CCC(N)=O)NC(=O)[C@H](C)NC(=O)[C@H](CCCNC(=N)N)NC(=O)[C@H](CCCNC(=N)N)NC(=O)[C@@H](NC(=O)[C@H](CC(=O)O)NC(=O)[C@H](CC(C)C)NC(=O)[C@H](Cc1ccc(O)cc1)NC(=O)[C@H](CCCCN)NC(=O)[C@H](CO)NC(=O)[C@H](Cc1ccc(O)cc1)NC(=O)[C@H](CC(=O)O)NC(=O)[C@H](CO)NC(=O)[C@@H](NC(=O)[C@H](Cc1ccccc1)NC(=O)[C@@H](NC(=O)CNC(=O)[C@H](CCC(N)=O)NC(=O)[C@H](CO)NC(=O)[C@@H](N)Cc1c[nH]cn1)[C@@H](C)O)[C@@H](C)O)C(C)C)C(C)C)C(=O)N[C@@H](CC(C)C)C(=O)N[C@@H](CO)C(=O)N[C@H](C(=O)O)[C@@H](C)O [Example 95, N^ε24-[(4S)-4-carboxy-4-[[(4S)-4-carboxy-4-[[2-[2-[2-[[2-[2-[2-[[(4S)-4-carboxy-4-(15-carboxypentadecanoylamino)butanoyl]amino]ethoxy]ethoxy]acetyl]amino]ethoxy]ethoxy]acetyl]amino]butanoyl]amino]butanoyl]-[Val16,Lys24,Leu27,Ser28]-Glucagon] (H-HSQGTFTSDYSKYLDVRRAQDFVK([γGlu-γGlu-AEEA-AEEA-γGlu-C16 diacid])WLLST-OH; N-terminus and C-terminus assumed) | 0.009 nM |  | 5.1%
4 | CC(C)C[C@H](NC(=O)[C@H](Cc1ccc(O)cc1)NC(=O)[C@H](CCCNC(=N)N)NC(=O)[C@H](CO)NC(=O)[C@H](Cc1ccc(O)cc1)NC(=O)[C@H](CC(=O)O)NC(=O)[C@H](CO)NC(=O)[C@@H](NC(=O)[C@H](Cc1ccccc1)NC(=O)[C@@H](NC(=O)CNC(=O)[C@H](CCC(N)=O)NC(=O)[C@H](CO)NC(=O)[C@@H](N)Cc1c[nH]cn1)[C@@H](C)O)[C@@H](C)O)C(=O)N[C@@H](CC(=O)O)C(=O)N[C@@H](C)C(=O)N[C@@H](CCCNC(=N)N)C(=O)N[C@@H](CCCNC(=N)N)C(=O)N[C@@H](C)C(=O)N[C@@H](CCC(N)=O)C(=O)N[C@@H](CC(=O)O)C(=O)N[C@@H](Cc1ccccc1)C(=O)N[C@H](C(=O)N[C@@H](CCCCNC(=O)CC[C@H](NC(=O)CC[C@H](NC(=O)CC[C@H](NC(=O)CC[C@H](NC(=O)CCCCCCCCCCCCCCCCC(=O)O)C(=O)O)C(=O)O)C(=O)O)C(=O)O)C(=O)N[C@@H](Cc1c[nH]c2ccccc12)C(=O)N[C@@H](CC(C)C)C(=O)N[C@@H](CC(C)C)C(=O)N[C@@H](CO)C(=O)N[C@H](C(=O)O)[C@@H](C)O)C(C)C [Example 96, N^ε24-[(4S)-4-carboxy-4-[[(4S)-4-carboxy-4-[[(4S)-4-carboxy-4-[[(4S)-4-carboxy-4-(17-carboxyheptadecanoylamino)butanoyl]amino]butanoyl]amino]butanoyl]amino]butanoyl]-[Arg12,Ala16,Lys24,Leu27,Ser28]-Glucagon] (H-HSQGTFTSDYSRYLDARRAQDFVK([γGlu-γGlu-γGlu-γGlu-C18 diacid])WLLST-OH; N-terminus and C-terminus assumed) | 0.062 nM |  | 4.5%
